Laboratory results as given in US20100144853A1, “NOVEL COMBINED ADMINISTRATION” (priority 2008, published 2010).

Key:
Type in all cases: in vitro ADME
[1] = Stability of COMPOUND A in human intestinal fluids, Procedure E (suspension, excess separated by centrifugation), stimulated; conditions: HIF-stimulated
Procedure: (§1) Stimulated Intestinal Fluids: the fluids from 3 different subjects were collected after fasting overnight with a nasojejunal tube and pooled. For the stimulation, twenty minutes before the beginning of the collection, volunteers were provided with chewing-gums and were asked to chew over a 15 minutes period, maintaining the taste by replacing the sticks of gum approximately every 2 minutes.
Procedure E (COMPOUND A and COMPOUND B in Suspension, Excess Compound Separated by Centrifugation):
Stock J=COMPOUND B suspension (2 mg/mL)
100 μL of FeSSIF concentrate and 900 μL of pro-FeSSIF pH6.5 were added to 4 mg commercially available Orlistat formulation (Xenical®) containing 2 mg of lipase inhibitor 1-(3-hexyl-4-oxo-oxetan-2-yl)tridecan-2-yl 2-formyl-amino-4-methyl-pentanoate (COMPOUND B) in a vial and the formulation was dispersed by gently stirring during 15 min to obtain a fine homogenous suspension.
500 μL of freshly thawed intestinal fluids (fasted and stimulated state) were added to 1 mg of COMPOUND A in a 1 mL glass vial immediately followed by the addition of either 0, 10 or 20 μL of COMPOUND B suspension (stock J) corresponding to 0, 40 or 80 μg/mL of COMPOUND B. The amount of COMPOUND B was 0, 2% or 4% COMPOUND B relative to COMPOUND A. The mixture was incubated at 37° C. with gentle stirring. Samples of 90 μL were removed as function of time and centrifuged at 13′000 rpm (about 12′000×g) for 5 min. 50 μL of the supernatant was diluted with 150 μL isopropanol, centrifuged at 5′000 rpm for 5 min and the clear supernatant was analyzed by HPLC.

Lipase from Hog Pancreas = experiment: Stability of COMPOUND A with Lipase, Procedure A (premix of Lipase and COMPOUND B, then COMPOUND A); conditions: 10 min, 0.55 mg/mL (11 U/mL) Lipase
Procedure: 240 mg Lipase (Lipase from Hog Pancreas, 20.6 U/mg Lipase, CAS No. 9001-62-1, Fluka, Art. No. 62300) were weighed into a vial and dissolved by stirring in 10 mL phosphate buffered saline solution pH 6.5. Any undissolved material was removed by centrifugation during 5 min at 5000 rpm. The supernatant was used for the experiments and diluted with PBS to obtain the Lipase at the final concentration of 0.55 mg/mL.
Procedure A (Premix of Lipase and COMPOUND B, Followed by Addition of Compound A):
1600 μL of Lipase in phosphate buffered saline solution (from stock C) to obtain a final enzyme concentration of 0.55 mg/mL) were mixed with 200 μL of COMPOUND B (stock B) and pre-incubated during 5 min at 37° C. At time zero 200 μL of drug solution (stock A) were added. The mixture was incubated at 37° C. After 10 min, the reaction was stopped by dilution of one part of the mixture with 3 parts of isopropanol.

[2] = Stability of COMPOUND A in human intestinal fluids, Procedure F (suspension, no separation of excess), second table; conditions: fasted HIF
Procedure: as §1
(§2) Procedure F (COMPOUND A and COMPOUND B in suspension, the degradation immediately stopped without separation of excess compound): Stock K=COMPOUND B suspension (0.5 mg/mL)
(§3) Dilute 1 part of COMPOUND B suspension (stock J) with 3 parts of FeSSIF pH6.5 solution.
(§4) 500 μL of freshly thawed intestinal fluids (fasted and stimulated state) were added to 1.2 mg of COMPOUND A in a 1 mL glass vial. The suspended compound was stirred for 15 min at 37° C. to obtain wetting and a homogenous suspension. In parallel, 4 glass vials were prepared with 20 μL of a COMPOUND B suspension at different concentrations. These concentrations were obtained by mixing FeSSIF pH6.5 and COMPOUND B suspension (stock K) in different ratios, respectively 1:[…], 1:1, 0:1 to obtain 0, 1, 2 and 4% related to COMPOUND A. At time zero, 100 μL of COMPOUND A suspension preincubated at 37° C. were added to the 20 μL COMPOUND B suspension. The mixture was incubated at 37° C. with gentle stirring. After 15 min and 60 min, the reaction was stopped by mixing a 50 μL sample with 150 μL isopropanol and centrifuged at 5′000 rpm during 5 min. The clear supernatant was analyzed for the hydrolysis product and its oxidized form by HPLC.

[3] = Stability of COMPOUND A in human intestinal fluids, Procedure F (suspension, no separation of excess), first table; conditions: fasted HIF
Procedure: Fasted Intestinal Fluids: the fluids from 4 different subjects were collected with a naso-jejunal tube after fasting overnight and pooled.
as §2, §3, §4

[4] = COMPOUND B 0 μg/mL (0%), T = 15 min
[5] = COMPOUND B 0 μg/mL (0%), T = 60 min
[6] = COMPOUND B 20 μg/mL (1%), T = 15 min
[7] = COMPOUND B 20 μg/mL (1%), T = 60 min
[8] = COMPOUND B 40 μg/mL (2%), T = 15 min
[9] = COMPOUND B 40 μg/mL (2%), T = 60 min
[10] = COMPOUND B 80 μg/mL (4%), T = 15 min
[11] = COMPOUND B 80 μg/mL (4%), T = 60 min

SMILES: CCC(CC)CC1(C(=O)Nc2ccccc2SC(=O)C(C)C)CCCCC1 [COMPOUND A, thioisobutyric acid S-(2-{[1-(2-ethyl-butyl)-cyclohexanecarbonyl]-amino}-phenyl)ester]
- Concentration of COMPOUND A ([1]; with 40 μg/mL of COMPOUND B, 15 min): 0.74 µg/mL
- Concentration of COMPOUND A ([1]; with 40 μg/mL of COMPOUND B, 30 min): 0.55 µg/mL
- Concentration of COMPOUND A ([1]; with 40 μg/mL of COMPOUND B, 1 h): 10.53 µg/mL
- Concentration of COMPOUND A ([1]; with 40 μg/mL of COMPOUND B, 2 h): 32.71 µg/mL
- Concentration of COMPOUND A ([1]; with 40 μg/mL of COMPOUND B, 4 h): 221.31 µg/mL
- Concentration of COMPOUND A ([1]; with 80 μg/mL of COMPOUND B, 15 min): 1.00 µg/mL
- Concentration of COMPOUND A ([1]; with 80 μg/mL of COMPOUND B, 30 min): 11.80 µg/mL
- Concentration of COMPOUND A ([1]; with 80 μg/mL of COMPOUND B, 1 h): 64.63 µg/mL
- Concentration of COMPOUND A ([1]; with 80 μg/mL of COMPOUND B, 2 h): 131.64 µg/mL
- Concentration of COMPOUND A ([1]; with 80 μg/mL of COMPOUND B, 4 h): 171.25 µg/mL
- Concentration of COMPOUND A ([1]; without COMPOUND B, 15 min): 3.09 µg/mL
- Concentration of COMPOUND A ([1]; without COMPOUND B, 30 min): 0.52 µg/mL
- Concentration of COMPOUND A ([1]; without COMPOUND B, 1 h): 0.62 µg/mL
- Concentration of COMPOUND A ([1]; without COMPOUND B, 2 h): 0.82 µg/mL
- Concentration of COMPOUND A ([1]; without COMPOUND B, 4 h): 1.31 µg/mL
- Concentration of COMPOUND A (Lipase from Hog Pancreas; COMPOUND B 0 μg/mL): 14.7 µg/mL
- Concentration of COMPOUND A (Lipase from Hog Pancreas; COMPOUND B 50 μg/mL): 46.4 µg/mL
- Concentration of COMPOUND A (Lipase from Hog Pancreas; COMPOUND B 100 μg/mL): 48.2 µg/mL
- Concentration of COMPOUND A [2, 4]: 1569.58 µg/mL
- Concentration of COMPOUND A [2, 5]: 400.63 µg/mL
- Concentration of COMPOUND A [2, 6]: 2034.38 µg/mL
- Concentration of COMPOUND A [2, 7]: 1503.21 µg/mL
- Concentration of COMPOUND A [2, 8]: 2163.01 µg/mL
- Concentration of COMPOUND A [2, 9]: 1515.41 µg/mL
- Concentration of COMPOUND A [2, 10]: 1945.50 µg/mL
- Concentration of COMPOUND A [2, 11]: 1449.03 µg/mL
- Concentration of COMPOUND A [3, 4]: 1111.92 µg/mL
- Concentration of COMPOUND A [3, 5]: 182.50 µg/mL
- Concentration of COMPOUND A [3, 6]: 1299.01 µg/mL
- Concentration of COMPOUND A [3, 7]: 718.26 µg/mL
- Concentration of COMPOUND A [3, 8]: 1381.23 µg/mL
- Concentration of COMPOUND A [3, 9]: 598.81 µg/mL
- Concentration of COMPOUND A [3, 10]: 1728.95 µg/mL
- Concentration of COMPOUND A [3, 11]: 826.93 µg/mL
